The results in this text go back to patent US20220160751A1, “METHODS OF TREATMENT OF DISEASES AND DISORDERS ASSOCIATED WITH INCREASED TET LEVEL, INCREASED H19 LEVEL, INCREASED LEVEL OF TGF SIGNALING, OR ANY COMBINATION THEREOF” (YALE UNIVERSITY, priority 2019, published 2022).

Experiment [1] deals with HUVECs. The experiment in a line: RT-qPCR and Western blot of gene expression in HUVECs. In kind it is cell-based, human. The conditions noted are these: for H19 expression (RT-qPCR): overnight treatment vs vehicle. As to the method: HUVECs (Lonza, CC-2517) were maintained in a growth medium composed of endothelial basal medium (EBM-2, CC-3156) supplemented with EGM-2 MV BulletKit (CC-4147, Lonza). Cells were used between passages P2-P5. For cytokine treatment, cells were incubated overnight with indicated concentrations of TNF-α, TNF-α plus IL-1β, or Hcy in endothelial basal medium. Cells were transfected in a 24-well plate scale. To prepare siRNA transfection solution for each well, 10 pmol of siCon, siH19, or siTET1 were mixed with 25 μl of OPTI-MEM by gentle pipetting. In parallel, 1 μl of Lipofectamine 3000 was mixed with 25 μl of OPTI-MEM. Following 5 min of incubation at RT, the two were mixed by gentle pipetting and incubated for 10 min at RT to allow siRNA/lipid complexes to form. At the end of incubation, the 50 μl of transfection solution was used to resuspend cell pellet (3×10^4 cells/well). After incubation at room temperature (RT) for 10 min, growth medium was added at a ratio of 1:9 (1 volume of transfection solution/9 volumes of growth medium) and the cell suspension was transferred to a culture plate. For cytokine treatment combined with H19 knockdown, cells were transfected with siCon or siH19 for 24 h, followed by addition of TNF-α at a final concentration of 10 ng/ml for an additional 24 h before RNA extraction. For iLet 7 rescue experiments, 10 pmol of siCon+iCon, iCon+siH19, or siH19+iLet7 were used for each well of 3×10^4 cells. Forty-eight hours after the transfection, RNA and protein were extracted for analysis.
To prepare DNA/lipid complexes for pH19/pTET1 overexpression (FIG. 23) or pTET1 overexpression rescue (FIG. 22) experiments, empty vector (0.5 μg), pH19 ([…]), or pTET1 (0.75 μg) were mixed with 1 μl of P3000 in 25 μl of OPTI-MEM by gentle pipetting. In parallel, 0.75 μl of Lipofectamin 3000 was mixed with 25 μl of OPTI-MEM. The contents in the two tubes were mixed by gentle pipetting and incubated at RT for 5 min. The resulting DNA/lipid complexes (50 μl) were added to one well of cells (8×10^4) which had been seeded in a 24-well plate in growth medium the night before. Following incubation at RT for 10 min, 300 μl of OPTI-MEM was added and cells were incubated in a tissue culture incubator for 4-6 h. […]
HUVECs in 24-well plates were dissociated with 0.25% trypsin. […] Bands on Western blot gels were quantified using ImageJ. […]
Total RNAs were extracted using PureLink RNA Mini Kit (Ambion, catalog number 12183018A). cDNA was synthesized using PrimeScript RT Reagent Kit (TAKARA, RR037A) in a 20 μl reaction containing 0.5-1 μg of total RNA. Real-time quantitative PCR was performed in a 15 μl reaction containing 0.5-1 μl of cDNA using iQSYBRGreen (Bio-Rad) in a Bio-Rad iCycler. […]

The subject of experiment [2] is UtLM and ht-UtLM leiomyoma cells. The experiment in a line: RT-qPCR and Western blot of gene expression in leiomyoma cells. In kind it is cell-based, human. The conditions noted are these: ht-UtLM cells, 24 h, 10^−8M. From the text:
Antibodies for TET3 (GeneTex, GTX121453; used at a dilution of 1/500), TGFBR2 (Abcam, ab184948; used at a dilution of 1/1000), TSP1 (Abcam, ab85762; used at a dilution of 1/500), MED12 (Novus Biological, NB100-2357; used at a dilution of 1/500), HMGA2 (Proteintech, 20795-1-AP; used at a dilution of 1/500), GRAF1 (Cell Signaling, 8802; used at a dilution of 1/500), SPARC (Cell Signaling, 8725; used at a dilution of 1/500), COL3A1 (LS-Bio, LS-C159386; used at a dilution of 1/1000), COL4A1 (LS-Bio, LS-C100552; used at a dilution of 1/500), COL5A2 (Origene, TA809611; used at a dilution of 1/500) and GAPDH (Abcam, ab128915; used at a dilution of 1/10000) were purchased. Human H19 siRNA (siH19) and control siRNA (siCon) were previously described (Ghazal S et al., 2015, EMBO Mol Med 7:996-1003). siTET3 (Ambion, 4392420/s47239), estradiol ([…], Sigma), and progesterone ([…], Sigma) were purchased. Estradiol and progesterone were dissolved in DMSO and used at a final concentration of 10^-8M. ht-UtLM cells tested negative for mycoplasma contamination were maintained in MEM (Sigma, #M3024) supplemented with 20% fetal bovine serum, 1×MEM Vitamin Solution (Invitrogen #11120-052), 1×MEM Amino Acids Solution (Invitrogen, #11130-051), and 1×MEM Non-Essential Amino Acids (Invitrogen #11140-050). Primary UtLM-1 and UtLM-2 cells were maintained in DMEM (Gibco, #10567014) supplemented with 20% fetal bovine serum, and 1% penicillin/streptomycin, 1% amphotericin B. All cells were transfected in a 24-well plate scale. To prepare siRNA transfection solution for each well, 10 pmol (5 pmol for primary cells) of siCon, siH19, or siTET3 were mixed with 25 μl of OPTI-MEM by gentle pipetting. In parallel, 1 μl of Lipofectamine 3000 was mixed with 25 μl of OPTI-MEM. Following 5 min of incubation at room temperature, the two were mixed by gentle inverting and incubated for 10 min at room temperature to allow siRNA/lipid complexes to form. At the end of incubation, the 50 μl of transfection solution was used to re-suspend the cell pellet (3×10^4 cells). After incubation at room temperature for 10 min, growth medium was added at a ratio of 1:9 (1 volume of transfection solution/9 volumes of growth medium), and the cell suspension was transferred to a new culture dish. After overnight incubation in a tissue culture incubator, the medium was replaced with fresh growth medium. For iLet 7 rescue experiments, 10 pmol of siCon/siH19 and 10 pmol of iCon/iLet7 were used for each well of 3×10^4 cells. RNA, genomic DNA, and protein were extracted and analyzed at the indicated time points following transfection.
On the technique in general: In qPCR the cycle at which signal appears reflects the starting amount.

`N[C@@H](CCS)C(=O)O` [Hcy, L-Homocysteine]: the “H19 expression (RT-qPCR)” value in experiment [1] is “dose-dependently upregulates H19”. For `CC(=O)[C@H]1CC[C@H]2[C@@H]3CCC4=CC(=O)CC[C@]4(C)[C@H]3CC[C@]12C` [progesterone], in experiment [2], the H19 expression entry is on record as “did not affect H19 expression”. With “IL-1β: Recombinant human IL-1β (R&D Systems, 201-LB), combined with TNF-α”, in experiment [1], the “H19 expression (RT-qPCR)” value is recorded as “additive effect”.

For TNF-α, the “expression of TET1, TGFBR2 and TSP1 (RT-qPCR)” value in experiment [1] (TNF-α 10 ng/ml 24 h vs vehicle) is “upregulated expression of TET1, TGFBR2 and TSP1”. Further, the “H19 expression (RT-qPCR)” value in experiment [1] is recorded as “stimulates H19 expression in a dose-dependent manner”.
